Structures can show the parent of a compound that is named as a salt.
The compounds below were run against JNK1 (Homo sapiens (Human), UniProt P45983) (assay: In Vitro JNK1 Assay (TR-FRET, phosphorylation of GST-c-Jun)). Details: 0.2 nM active JNK1 kinase, 26.7 nM GST-c-Jun, 2 μM ATP, 30 min at room temperature.
Format: biochemical
Method: Phosphorylation of GST-c-Jun protein (amino acid residues 1-79) was measured as JNK1 activity. […] The reaction buffer contained 50 mM HEPES, pH […], 1 mM DTT, 0.1 mM Na3VO4 and 0.2 mg/mL BSA. After 30 min. incubation at room temperature, the reaction was terminated by adding buffer containing 8 mM EDTA and a polyclonal anti-phospho-c-Jun antibody (Cell Signaling #9261L), followed by an additional incubation of 30 min. at room temperature. […] Time-resolved Fluorescence Resonance Energy Transfer (TR-FRET) signals were measured 1 hr. later on the EnVision reader (Perkin Elmer). Compound potency was assessed at 10 serially diluted concentrations. Percentage of inhibition at each concentration was determined to generate an IC50 value for each compound.

Sequence of JNK1 (P45983 whole entry): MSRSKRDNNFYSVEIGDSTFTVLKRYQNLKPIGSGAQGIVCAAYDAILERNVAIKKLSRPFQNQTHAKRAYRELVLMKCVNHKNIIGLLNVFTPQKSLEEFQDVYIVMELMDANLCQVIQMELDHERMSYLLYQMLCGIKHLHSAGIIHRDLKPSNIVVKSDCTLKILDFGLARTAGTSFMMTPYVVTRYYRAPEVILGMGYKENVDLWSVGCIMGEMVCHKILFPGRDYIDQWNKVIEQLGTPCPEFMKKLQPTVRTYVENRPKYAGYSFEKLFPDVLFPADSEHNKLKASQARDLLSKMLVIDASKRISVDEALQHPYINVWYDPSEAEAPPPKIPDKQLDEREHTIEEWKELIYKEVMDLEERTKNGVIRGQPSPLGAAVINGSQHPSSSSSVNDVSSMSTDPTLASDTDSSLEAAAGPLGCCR

Row | Compound | IC50 [nM]
1 | 1-(4-Chloro-3-fluoro-phenyl)-3-(7-chloro-4-oxo-1-phenyl-1,4-dihydro-quinolin-3-yl-methyl)-urea [Example I-204] | 1100
2 | COC(=O)c1ccc(C(=O)NCc2c(-c3ncco3)n(-c3ccccc3)c3cc(Cl)ccc3c2=O)cn1 [Example I-5, 5-[(7-Chloro-2-oxazol-2-yl-4-oxo-1-phenyl-1,4-dihydro-quinolin-3-ylmethyl)-carbamoyl]-pyridine-2-carboxylic acid methyl ester] | 25
3 | O=C(NCc1c(-c2ncco2)n(-c2ccccc2)c2cc(Cl)ccc2c1=O)c1ccc(Cl)nc1 [Example I-6, 6-Chloro-N-(7-chloro-2-oxazol-2-yl-4-oxo-1-phenyl-1,4-dihydro-quinolin-3-ylmethyl)-nicotinamide] | 29
4 | CN(C)C(=O)c1c(CNC(=O)c2ccc(N3CCOCC3)cc2)c(=O)c2ccc(Cl)cc2n1-c1ccccc1 [Example I-17, 7-Chloro-3-[(4-morpholin-4-yl-benzoylamino)-methyl]-4-oxo-1-phenyl-1,4-dihydro-quinoline-2-carboxylic acid dimethylamide] | 140
5 | CN(C)C(=O)c1c(CNC(=O)c2ccc(-c3cnco3)cc2)c(=O)c2ccc(Cl)cc2n1-c1ccccc1 [Example I-18, 7-Chloro-3-[(4-oxazol-5-yl-benzoylamino)-methyl]-4-oxo-1-phenyl-1,4-dihydro-quinoline-2-carboxylic acid dimethylamide] | 150
6 | CN(C)C(=O)c1c(CNC(=O)c2ccc(F)cc2)c(=O)c2ccc(Cl)cc2n1-c1ccccc1 [Example I-20, 7-Chloro-3-[(4-fluoro-benzoylamino)-methyl]-4-oxo-1-phenyl-1,4-di-hydro-quinoline-2-carboxylic acid dimethylamide] | 240
7 | CN(C)C(=O)c1c(CNC(=O)c2ccc3c(c2)OCCO3)c(=O)c2ccc(Cl)cc2n1-c1ccccc1 [Example I-21, 7-Chloro-3-{[(2,3-dihydro-benzo[1,4]dioxine-6-carbonyl)-amino]-methyl}-4-oxo-1-phenyl-1,4-dihydro-quinoline-2-carboxylic acid dimethylamide] | 460
8 | O=C(NCc1cn(-c2ccccc2)c2cc(Cl)ccc2c1=O)c1ccn(Cc2cccc(Cl)c2)c(=O)c1 [Example I-44, 1-(3-Chloro-benzyl)-2-oxo-1,2-dihydro-pyridine-4-carboxylic acid (7-chloro-4-oxo-1-phenyl-1,4-dihydro-quinolin-3-ylmethyl)-amide] | 110
9 | Cn1cnc2cc(C(=O)NCc3cn(-c4ccccc4)c4cc(Cl)ccc4c3=O)cnc21 [Example I-45, 3-Methyl-3H-imidazo[4,5-b]pyridine-6-carboxylic acid (7-chloro-4-oxo-1-phenyl-1,4-dihydro-quinolin-3-ylmethyl)-amide] | 110
10 | O=C(NCc1cn(-c2ccccc2)c2cc(Cl)ccc2c1=O)c1ccc2cc[nH]c2c1 [Example I-46, 1H-Indole-6-carboxylic acid (7-chloro-4-oxo-1-phenyl-1,4-dihydro-quinolin-3-ylmethyl)-amide] | 140
11 | O=C(NCc1cn(-c2ccccc2)c2cc(Cl)ccc2c1=O)c1ccc(-c2cnco2)cc1 [Example I-47, N-(7-Chloro-4-oxo-1-phenyl-1,4-dihydro-quinolin-3-ylmethyl)-4-oxazol-5-yl-benzamide] | 170
12 | COc1ccccc1Cn1ccc(C(=O)NCc2cn(-c3ccccc3)c3cc(Cl)ccc3c2=O)cc1=O [Example I-48, 1-(2-Methoxy-benzyl)-2-oxo-1,2-dihydro-pyridine-4-carboxylic acid (7-chloro-4-oxo-1-phenyl-1,4-dihydro-quinolin-3-ylmethyl)-amide] | 180
13 | O=C(NCc1cn(-c2ccccc2)c2cc(Cl)ccc2c1=O)c1cnc2nc[nH]c2c1 [Example I-49, 1H-Imidazo[4,5-b]pyridine-6-carboxylic acid (7-chloro-4-oxo-1-phenyl-1,4-dihydro-quinolin-3-ylmethyl)-amide] | 230
14 | NC(=O)c1ccc(C(=O)NCc2cn(-c3ccccc3)c3cc(Cl)ccc3c2=O)cc1 [Example I-50, N-(7-Chloro-4-oxo-1-phenyl-1,4-dihydro-quinolin-3-ylmethyl)-terephthal-amide] | 300
15 | CC(C)(C)OC(=O)N1CCC(C(=O)NCc2cn(-c3ccccc3)c3cc(Cl)ccc3c2=O)C1 (centres unmarked) [Example I-51, 3-[(7-Chloro-4-oxo-1-phenyl-1,4-dihydro-quinolin-3-ylmethyl)-carbamoyl]-pyrrolidine-1-carboxylic acid tert-butyl ester] | 330
16 | O=C(NCc1cn(-c2ccccc2)c2cc(Cl)ccc2c1=O)c1ccc(=O)n(Cc2ccccc2)c1 [Example I-52, 1-Benzyl-6-oxo-1,6-dihydro-pyridine-3-carboxylic acid (7-chloro-4-oxo-1-phenyl-1,4-dihydro-quinolin-3-ylmethyl)-amide] | 380

Row | Compound | IC50 [nM]
17 | Cn1cc(C(=O)NCc2cn(-c3ccccc3)c3cc(Cl)ccc3c2=O)nn1 [Example I-53, 1-Methyl-1H-[1,2,3]triazole-4-carboxylic acid (7-chloro-4-oxo-1-phenyl-1,4-dihydro-quinolin-3-ylmethyl)-amide] | 560
18 | Cn1ccc(C(=O)NCc2cn(-c3ccccc3)c3cc(Cl)ccc3c2=O)cc1=O [Example I-54, 1-Methyl-2-oxo-1,2-dihydro-pyridine-4-carboxylic acid (7-chloro-4-oxo-1-phenyl-1,4-dihydro-quinolin-3-ylmethyl)-amide] | 670
19 | O=C(NCc1cn(-c2ccccc2)c2cc(Cl)ccc2c1=O)c1cn(Cc2ccccc2)nn1 [Example I-55, 1-Benzyl-1H-[1,2,3]triazole-4-carboxylic acid (7-chloro-4-oxo-1-phenyl-1,4-dihydro-quinolin-3-ylmethyl)-amide] | 700
20 | O=C(NCc1cn(-c2ccccc2)c2cc(Cl)ccc2c1=O)c1cnc(N2CCOCC2)nc1 [Example I-56, 2-Morpholin-4-yl-pyrimidine-5-carboxylic acid (7-chloro-4-oxo-1-phenyl-1,4-dihydro-quinolin-3-ylmethyl)-amide] | 190
21 | O=C(NCc1cn(-c2ccccc2)c2cc(Cl)ccc2c1=O)c1cc(F)cc(F)c1 [Example I-58, N-(7-Chloro-4-oxo-1-phenyl-1,4-dihydro-quinolin-3-ylmethyl)-3,5-difluoro-benzamide] | 630
22 | O=C(NCc1cn(-c2ccccc2)c2cc(Cl)ccc2c1=O)c1cccc(F)c1F [Example I-59, N-(7-Chloro-4-oxo-1-phenyl-1,4-dihydro-quinolin-3-ylmethyl)-2,3-difluoro-benzamide] | 1700
23 | O=C(NCc1cn(-c2ccccc2)c2cc(Cl)ccc2c1=O)c1cc(F)ccc1F [Example I-60, N-(7-Chloro-4-oxo-1-phenyl-1,4-dihydro-quinolin-3-ylmethyl)-2,5-difluoro-benzamide] | 1900
24 | O=C(NCc1cn(-c2ccccc2)c2cc(Cl)ccc2c1=O)c1ccc(Cl)nc1 [Example I-61, 6-Chloro-N-(7-chloro-4-oxo-1-phenyl-1,4-dihydro-quinolin-3-ylmethyl)-nicotinamide] | 430
25 | NC(=O)C1CCN(c2ccc(C(=O)NCc3cn(-c4ccccc4)c4cc(Cl)ccc4c3=O)cn2)CC1 [Example I-86, 3,4,5,6-Tetrahydro-2H-[1,2′]bipyridinyl-4,5′-dicarboxylic acid 4-amide-5′-[(7-chloro-4-oxo-1-phenyl-1,4-dihydro-quinolin-3-ylmethyl)-amide]] | 110
26 | O=C(NCc1cn(-c2ccccc2)c2cc(Cl)ccc2c1=O)c1ccc(N2CC[C@H](O)C2)nc1 [Example I-87, N-(7-Chloro-4-oxo-1-phenyl-1,4-dihydro-quinolin-3-ylmethyl)-6-((S)-3-hydroxy-pyrrolidin-1-yl)-nicotinamide] | 120
27 | CN1CCN(c2ccc(C(=O)NCc3cn(-c4ccccc4)c4cc(Cl)ccc4c3=O)cn2)CC1 [Example I-88, N-(7-Chloro-4-oxo-1-phenyl-1,4-dihydro-quinolin-3-ylmethyl)-6-(4-methyl-piperazin-1-yl)-nicotinamide] | 250
28 | NC1CCN(c2ccc(C(=O)NCc3cn(-c4ccccc4)c4cc(Cl)ccc4c3=O)cn2)CC1 [Example I-90, 4-Amino-3,4,5,6-tetrahydro-2H-[1,2′]bipyridinyl-5′-carboxylic acid (7-chloro-4-oxo-1-phenyl-1,4-dihydro-quinolin-3-ylmethyl)-amide trifluoroacetate] | 130
29 | O=C(NCc1cn(-c2ccccc2Cl)c2cc(Cl)ccc2c1=O)c1ccc(Br)nc1 [Example I-101, 6-Bromo-N-[7-chloro-1-(2-chloro-phenyl)-4-oxo-1,4-dihydro-quinolin-3-ylmethyl]-nicotinamide] | 600
30 | O=C(NCc1cn(-c2ccccc2Cl)c2cc(Cl)ccc2c1=O)c1ccc(-c2cn[nH]c2)nc1 [Example I-102, N-[7-Chloro-1-(2-chloro-phenyl)-4-oxo-1,4-dihydro-quinolin-3-ylmethyl]-6-(1H-pyrazol-4-yl)-nicotinamide] | 740
31 | O=C(NCc1cn(-c2ccccc2F)c2cc(F)ccc2c1=O)c1ccc(Cl)nc1 [Example I-105, 6-Chloro-N-[7-fluoro-1-(2-fluoro-phenyl)-4-oxo-1,4-dihydro-quinolin-3-yl-methyl]-nicotinamide] | 150
32 | O=C(NCc1cn(-c2ccccc2F)c2cc(F)ccc2c1=O)c1ccc(N2CCS(=O)(=O)CC2)nc1 [Example I-107, 6-(1,1-Dioxo-1-thiomorpholin-4-yl)-N-[7-fluoro-1-(2-fluoro-phenyl)-4-oxo-1,4-dihydro-quinolin-3-ylmethyl]-nicotinamide] | 100

From patent publication US8501732B2, “Aminomethyl quinolone compounds” (Hoffmann-La Roche Inc., priority 2011, dated 2013)
